Reference: PubChem BioAssay (NCI)
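Exposure lasted 48 hours, with cells grown in 96-well plates and compounds tested at five concentrations. GI50: concentration for 50% inhibition of growth. TGI marks complete inhibition of growth.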

Columns and labels:
Experiment in all cases: inhibition of tumour cell growth, NCI panel, 48 h
[1] = system: COLO 205 colon
[2] = system: CAKI-1 renal
[3] = system: SK-OV-3 ovarian
[4] = system: 786-0 renal
[5] = system: M14 melanoma
[6] = system: SK-MEL-5 melanoma
[7] = system: HS 578T breast
[8] = system: EKVX NSCLC
[9] = system: MALME-3M melanoma
[10] = system: HCT-116 colon
[11] = system: HT29 colon
[12] = system: A549 NSCLC
[13] = system: HOP-62 NSCLC
[14] = system: MOLT-4 leukemia
[15] = system: UACC-257 melanoma
[16] = system: OVCAR-8 ovarian
[17] = system: IGROV1 ovarian
[18] = system: ACHN renal
[19] = system: KM12 colon
[20] = system: NCI-H460 lung
[21] = system: SW-620 colon
[22] = system: SF-268 CNS
[23] = system: HCT-15 colon
[24] = system: RPMI-8226 leukemia
[25] = system: OVCAR-4 ovarian
[26] = system: NCI-H522 lung
[27] = system: NCI-H226 lung
[28] = system: MDA-MB-435
[29] = system: OVCAR-5 ovarian
[30] = system: PC-3 prostate
[31] = system: RXF 393 renal
[32] = system: SN12C renal
[33] = system: SF-539 CNS
[34] = system: UACC-62 melanoma
[35] = system: NCI/ADR-RES ovarian
[36] = system: SF-295 CNS
[37] = system: BT-549 breast
[38] = system: HL-60(TB) leukemia
[39] = system: NCI-H23 lung
[40] = system: HCC-2998 colon
[41] = system: DU-145 prostate
[42] = system: SK-MEL-2 melanoma
[43] = system: OVCAR-3 ovarian
[44] = system: SK-MEL-28 melanoma
[45] = system: LOX IMVI melanoma
[46] = system: MDA-MB-231 breast
[47] = system: U251 CNS
[48] = system: K-562 leukemia
[49] = system: SNB-19 CNS
[50] = system: SNB-75 CNS
[51] = system: UO-31 renal
[52] = system: SR leukemia
[53] = system: A498 renal
[54] = system: TK-10 renal
[55] = system: MCF7 breast

COc1ccc2c(c1)c(-c1ccc(-c3cn(C)c4ccc(OC)cc34)s1)cn2C
GI50 [1]: > 100 µM
TGI [1]: > 100 µM
GI50 [2]: > 100 µM
TGI [2]: > 100 µM
GI50 [3]: > 100 µM
TGI [3]: > 100 µM
GI50 [4]: > 100 µM
TGI [4]: > 100 µM
GI50 [5]: > 100 µM
TGI [5]: > 100 µM
GI50 [6]: > 100 µM
TGI [6]: > 100 µM
GI50 [7]: > 100 µM
TGI [7]: > 100 µM
GI50 [8]: > 100 µM
TGI [8]: > 100 µM
GI50 [9]: > 100 µM
TGI [9]: > 100 µM
GI50 [10]: > 100 µM
TGI [10]: > 100 µM
GI50 [11]: > 100 µM
TGI [11]: > 100 µM
GI50 [12]: > 100 µM
TGI [12]: > 100 µM
GI50 [13]: > 100 µM
TGI [13]: > 100 µM
GI50 [14]: > 100 µM
TGI [14]: > 100 µM
GI50 [15]: > 100 µM
TGI [15]: > 100 µM
GI50 [16]: > 100 µM
TGI [16]: > 100 µM
GI50 [17]: > 100 µM
TGI [17]: > 100 µM
GI50 [18]: > 100 µM
TGI [18]: > 100 µM
GI50 [19]: > 100 µM
TGI [19]: > 100 µM
GI50 [20]: > 100 µM
TGI [20]: > 100 µM
GI50 [21]: > 100 µM
TGI [21]: > 100 µM
GI50 [22]: > 100 µM
TGI [22]: > 100 µM
GI50 [23]: > 100 µM
TGI [23]: > 100 µM
GI50 [24]: > 100 µM
TGI [24]: > 100 µM
GI50 [25]: 90.2 µM
TGI [25]: > 100 µM
GI50 [26]: > 100 µM
TGI [26]: > 100 µM
GI50 [27]: > 100 µM
TGI [27]: > 100 µM
GI50 [28]: > 100 µM
TGI [28]: > 100 µM
GI50 [29]: > 100 µM
TGI [29]: > 100 µM
GI50 [30]: > 100 µM
TGI [30]: > 100 µM
GI50 [31]: > 100 µM
TGI [31]: > 100 µM
GI50 [32]: > 100 µM
TGI [32]: > 100 µM
GI50 [33]: > 100 µM
TGI [33]: > 100 µM
GI50 [34]: > 100 µM
TGI [34]: > 100 µM
GI50 [35]: > 100 µM
TGI [35]: > 100 µM
GI50 [36]: > 100 µM
TGI [36]: > 100 µM
GI50 [37]: > 100 µM
TGI [37]: > 100 µM
GI50 [38]: > 100 µM
TGI [38]: > 100 µM
GI50 [39]: > 100 µM
TGI [39]: > 100 µM
GI50 [40]: > 100 µM
TGI [40]: > 100 µM
GI50 [41]: > 100 µM
TGI [41]: > 100 µM
GI50 [42]: > 100 µM
TGI [42]: > 100 µM
GI50 [43]: > 100 µM
TGI [43]: > 100 µM
GI50 [44]: > 100 µM
TGI [44]: > 100 µM
GI50 [45]: > 100 µM
TGI [45]: > 100 µM
GI50 [46]: > 100 µM
TGI [46]: > 100 µM
GI50 [47]: > 100 µM
TGI [47]: > 100 µM
GI50 [48]: > 100 µM
TGI [48]: > 100 µM
GI50 [49]: > 100 µM
TGI [49]: > 100 µM
GI50 [50]: 49.4 µM
TGI [50]: > 100 µM
GI50 [51]: > 100 µM
TGI [51]: > 100 µM
GI50 [52]: > 100 µM
TGI [52]: > 100 µM
GI50 [53]: > 100 µM
TGI [53]: > 100 µM
GI50 [54]: > 100 µM
TGI [54]: > 100 µM
GI50 [55]: > 100 µM
TGI [55]: > 100 µM
